Where a name gives a salt, the structure may show the parent alone. Read-outs that look alike come from different tables or passages of the source.

Data set [1] deals with T1, α7-subtype of nicotinic receptors (Rattus norvegicus, UniProt Q05941).
T1 construct: Cerebral cortices from male Wistar rats (150-250 g) are homogenised; from tissue; host or cells: rat cerebral cortex membrane homogenate (male Wistar rats)
Description: In vitro inhibition of 3H-α-bungarotoxine binding in rat brain. The conditions noted are these: rat cerebral cortex homogenate, 2 hours at 37° C., read-out: IC50 (concentration of the test substance which inhibits the specific binding of 3H-α-bungarotoxine by 50%).

T1 sequence (Q05941 23-502): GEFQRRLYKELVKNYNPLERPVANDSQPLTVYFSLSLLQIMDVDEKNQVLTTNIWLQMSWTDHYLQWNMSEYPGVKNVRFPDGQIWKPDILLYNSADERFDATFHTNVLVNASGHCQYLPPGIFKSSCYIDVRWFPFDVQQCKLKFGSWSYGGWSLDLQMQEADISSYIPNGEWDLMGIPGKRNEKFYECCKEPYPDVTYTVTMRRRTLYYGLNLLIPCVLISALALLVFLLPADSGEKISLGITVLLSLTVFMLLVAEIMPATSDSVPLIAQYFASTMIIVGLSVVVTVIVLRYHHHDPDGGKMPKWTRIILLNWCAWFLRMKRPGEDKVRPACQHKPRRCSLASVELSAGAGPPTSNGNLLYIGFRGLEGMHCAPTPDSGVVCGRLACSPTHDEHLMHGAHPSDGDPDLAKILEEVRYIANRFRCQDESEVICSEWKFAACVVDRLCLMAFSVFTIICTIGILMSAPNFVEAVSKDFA

With `CN1C2CCC1CN(c1ccc(-c3cccc(F)c3)nn1)C2` [Compound E11, 3-[6-(3-Fluoro-phenyl)-pyridazin-3-yl]-8-methyl-3,8-diaza-bicyclo[3.2.1]octane], the melting point is 149 to 150 °C. In data set [1] (3H-α-bungarotoxine 2 nM), the IC50 was below 1000 nM. Molecule `CN1C2CCC1CN(c1ccc(-c3ccccc3N)nn1)C2` (as salt: fumaric acid salt) registered a melting point of 186 to 195 °C.

`CN1C2CCC1CN(c1ccc(-c3ccccc3Cl)nn1)C2` (as salt: fumaric acid salt) returned a melting point of 192 to 200 °C. Still for that read-out and setting: next, `COc1ccc(-c2ccc(N3CC4CCC(C3)N4C)nn2)cc1`: 154 to 155 °C; `CN1C2CCC1CN(c1nnc(-c3ccccc3)o1)C2` (as salt: fumaric acid salt): 170 to 191 °C. With `CN1C2CCC1CN(c1ccc(-c3ccco3)nn1)C2` [Compound E3, 3-(6-Furan-2-yl-pyridazin-3-yl)-8-methyl-3,8-diaza-bicyclo[3.2.1]octane], the melting point was found to be 144 °C. For the same molecule, in data set [1] (3H-α-bungarotoxine 2 nM), the IC50 was below 1000 nM. In the case of `CN1C2CCC1CN(c1ccc(-c3ccccc3)cn1)C2`, the melting point was 110.5 °C. In turn, `CN1C2CCC1CN(c1ccc(-c3ccccc3F)nn1)C2` [Compound E9, 3-[6-(2-Fluoro-phenyl)-pyridazin-3-yl]-8-methyl-3,8-diaza-bicyclo[3.2.1]octane] came in with a melting point of 152 °C. In data set [1] ([…]), the IC50 is below 1000 nM. The like results for `CC(=O)Nc1cccc(-c2ccc(N3CC4CCC(C3)N4C)nn2)c1` [Compound E8, N-{3-[6-(8-Methyl-3,8-diaza-bicyclo[3.2.1]oct-3-yl)-pyridazin-3-yl]-phenyl}-acetamide] were, in that order, 74 °C and below 1000 nM.

`COc1ccccc1-c1ccc(N2CC3CCC(C2)N3C)nn1` displayed a melting point of 170 to 172 °C. Consider `CN1C2CCC1CN(c1nnc(-c3ccccc3)s1)C2` (as salt: fumaric acid salt), for which the melting point lay in the range of 192 to 200 °C. On the same count and under the same terms, next, `CN1C2CCC1CN(c1ccc(-c3ccc(Cl)cc3)nn1)C2`: 180 °C. With `CN1C2CCC1CN(c1ccc(-c3ccoc3)nn1)C2` [Compound E5, 3-(6-Furan-3-yl-pyridazin-3-yl)-8-methyl-3,8-diaza-bicyclo[3.2.1]octane], the melting point is 152 °C. The IC50 in data set [1] (3H-α-bungarotoxine 2 nM) is below 1000 nM.

As for `CN1C2CCC1CN(c1ccc(-c3cccc(N)c3)nn1)C2` [Compound E7, 3-[6-(8-Methyl-3,8-diaza-bicyclo[3.2.1]oct-3-yl)-pyridazin-3-yl]-phenylamine], the melting point came out at 164 °C. Besides, the IC50 in data set [1] (3H-α-bungarotoxine 2 nM) was below 1000 nM. `CN1C2CCC1CN(c1ccc(-c3cccc(Cl)c3)nn1)C2` registered a melting point of 159 °C. On to `CN1C2CCC1CN(c1ccc(-c3ccsc3)nn1)C2` [Compound E2, 8-Methyl-3-(6-thiophen-3-yl-pyridazin-3-yl)-3,8-diaza-bicyclo[3.2.1]octane], for which the melting point was in the range of 172 to 173 °C. For the same molecule, the IC50 in data set [1] (3H-α-bungarotoxine 2 nM) is below 1000 nM. For `CN1C2CCC1CN(c1ccc(-c3cccs3)nn1)C2` [Compound E1, 8-Methyl-3-(6-thiophen-2-yl-pyridazin-3-yl)-3,8-diaza-bicyclo[3.2.1]octane], the melting point was determined as 156 °C. Also, in data set [1] (3H-α-bungarotoxine 2 nM), the IC50 was below 1000 nM. For the molecule `CN1C2CCC1CN(c1ccc(-c3ccc(F)cc3)nn1)C2`, the melting point fell in the range of 164 to 165 °C. `COc1ccc2cc(-c3ccc(N4CC5CCC(C4)N5C)nn3)ccc2c1` (as salt: fumaric acid salt) gave a melting point of 242 °C. On the same count and under the same terms, next, `CN1C2CCC1CN(c1ccc(-c3ccccc3)nn1)C2`: 151 °C; `CN1C2CCC1CN(c1cccc(-c3ccccc3)n1)C2` (as salt: fumaric acid salt): 159 to 160 °C. For the molecule `COc1cccc(-c2ccc(N3CC4CCC(C3)N4C)nn2)c1`, the melting point was in the range of 92 to 97 °C.

On to `CC(=O)Nc1ccccc1-c1ccc(N2CC3CCC(C2)N3C)nn1` (as salt: fumaric acid salt), for which the melting point lay in the range of 219 to 222 °C. `CN1C2CCC1CN(c1ccc(-c3cccnc3)nn1)C2` came in with a melting point of 131 to 133 °C.

Values taken from US20080153806A1, “Novel Diazabicyclic Aryl Derivatives And Their Medical Use” (priority 2004, published 2008).
